Consider eight molecules from ChEMBL document CHEMBL1138775, “Soft docking and multiple receptor conformations in virtual screening” (J Med Chem, 2004).

Test [1] addresses T1, Aldo-keto reductase family 1 member B1 (Sus scrofa, UniProt P80276). Description: Inhibition of aldose reductase from pig lenses.
The target of test [2] is T1, Aldo-keto reductase family 1 member B1. Nature of the test: Inhibition of aldose reductase from pig lenses; no inhibition.

Some results are limits rather than exact numbers.

As usually defined, the IC50 is the point on the concentration scale where inhibition reaches its midpoint. Lower therefore signals greater potency. Consider `COc1ccc2c(C(=S)N(C)CC(=O)O)cccc2c1C(F)(F)F` [TOLRESTAT], for which the half-maximal inhibitory concentration (IC50) in test [1] came to 0.038 µM. This counts as double-digit nanomolar.

In the case of `O=C(O)Cc1cn(Cc2cccc(Cl)c2)c2ccccc12`, the IC50 in test [1] amounted to 14 µM.

The molecule `Clc1ccc(CN(Cc2ccc(Cl)cc2)c2nnn[nH]2)cc1` registered an IC50 in test [1] of 336 µM.

Consider `CC(OCc1ccccc1)C(NC(=O)OCc1ccccc1)C(=O)O` (stereo not drawn), for which the IC50 in test [2] is > 300 µM.

As to `CC(OCc1ccc(Cl)cc1)C(NC(=O)CC(C)(C)C)C(=O)O` (stereo not drawn), the IC50 in test [2] was > 400 µM.

Consider `O=C1NC(=O)[C@@]2(CCOc3ccc(F)cc32)N1` [SORBINIL], for which the IC50 in test [1] was determined as 1.1 µM. That is a single-digit micromolar value.

In test [1], `O=C(O)C1CC(=O)N(Cc2ccc(Cl)cc2)C1` (stereo not drawn) gave an IC50 of 8 µM.

For `O=C(O)c1nnn(-c2cccc(Br)c2)c1-c1ccccc1`, in test [1], the IC50 amounted to 274 µM.
